According to patent US7655392B2, “Quenching methods for red blood cell inactivation process” (priority 2004, dated 2010):

Tested on: red blood cells
Experiment: Gel card agglutination with rabbit anti-acridine sera
Assay type: cell-based
Protocol: The reduction in modification of red blood cells in the methods of the present invention can be evaluated by several assays. In one assay, rabbit polyclonal sera that is reactive with acridine is produced by injecting New Zealand White rabbits with an acridine compound conjugated to KLH.
This is conjugated to KLH by adding 10 μL of the compound (10 mM in de-ionized water) to 990 μL of a buffered solution of KLH (10 mg/mL in 50 mM Phosphate, 150 mM NaCl, PBS pH=7.2 with proprietary stabilizer, Pierce Cat # 77600) and incubating at room temperature for over 20 hours. Following this incubaton, the conjugated KLH is isolated from the unreacted S-197 and S-197 by-products by passing through a desalting column (e.g. D-salt columns, Pierce) and eluting in PBS buffer. The colored fractions of the solutions are then combined and the KLH conjugates are characterized by the ratio of absorbance at 210 and 410 nm. The acridine-KLH conjugate solutions are mixed with Complete Freund's Adjuvant for intramuscular injection into the rabbits at multiple sites to immunize the rabbits. […] The resulting solution can be assayed for agglutination by passing through a Buffer Gel Card (Micro Typing Systems, Pompano Beach, Fla.). The gel cards are designed to allow non-agglutinated red blood cells to pass through, while cells agglutinated by reaction with the rabbit sera and cross reacting with the anti-rabbit antibody will remain at the top of the gel. The cards are scored as 0, 1+, 2+, 3+, or 4+, where 0 indicates all cells are intact and are at the bottom of the gel, while 4+ indicates complete agglutination, with all cells at the top of the gel.
In these, the appropriate amount of 600 mM stock was added, mixed with an appropriate volume of 8% dextrose to provide the same volume addition to each RBC sample where in one study, with varied glutathione concentrations, the pH was measured after adding glutathione and after adding PIC-1. […] Similar samples were also assessed for the inactivation of S. epidermidis. […] For gel card analysis, after incubation, the RBC were washed in BBS and were diluted in BBS to a final hematocrit of 4%. A 25 μL aliquot of each was mixed with 15 μL of rabbit polyclonal anti-acridine sera diluted either 1:4 or 1:100 in BBS and the mixture was incubated at 37° C. for 30 minutes. The cells were subsequently washed with 1.5 mL BBS. […]
Heterophile antibodies are naturally occurring antibodies that recognize RBC from another species in a non-specific fashion. […] All samples were mixed with quencher first, then PIC-1 at 0.2 mM.
The standard condition was included, i.e. 0.2 mM PIC-1 and 2 mM acidic glutathione added together.

Measured: Gel card score

O=C(CCNc1c2ccccc2nc2ccccc12)OCCN(CCCl)CCCl [PIC-1]
4+: another study, rabbit sera 1:4: 10 mM neutralized (2 eq.) glutathione, 0.2 mM PIC-1 | another study, rabbit sera 1:4: standard condition
0: Table 13: 5 mM GSH 2eq/15 mM Cys 1eq, 0.2 mM PIC-1, blood sample 1, sera 1:100 | Table 13: 5 mM GSH 2eq/15 mM Cys 1eq, 0.2 mM PIC-1, blood sample 2, sera 1:100 | Table 13: 5 mM GSH 2eq/15 mM Cys 2eq, 0.2 mM PIC-1, blood sample 1, sera 1:100 | Table 13: 5 mM GSH 2eq/15 mM Cys 2eq, 0.2 mM PIC-1, blood sample 2, sera 1:100 | Table 13: 10 mM GSH 2eq/10 mM Cys 1eq, 0.2 mM PIC-1, blood sample 1, sera 1:100 | Table 13: 10 mM GSH 2eq/10 mM Cys 1eq, 0.2 mM PIC-1, blood sample 2, sera 1:100 | Table 13: 10 mM GSH 2eq/10 mM Cys 2eq, 0.2 mM PIC-1, blood sample 1, sera 1:100 | Table 13: 10 mM GSH 2eq/10 mM Cys 2eq, 0.2 mM PIC-1, blood sample 2, sera 1:100 | Table 13: 15 mM GSH 2eq/5 mM Cys 1eq, 0.2 mM PIC-1, blood sample 1, sera 1:100 | Table 13: 15 mM GSH 2eq/5 mM Cys 1eq, 0.2 mM PIC-1, blood sample 2, sera 1:100 | Table 13: 15 mM GSH 2eq/5 mM Cys 2eq, 0.2 mM PIC-1, blood sample 1, sera 1:100 | Table 13: 15 mM GSH 2eq/5 mM Cys 2eq, 0.2 mM PIC-1, blood sample 2, sera 1:100 | Table 13: 20 mM Cys 1eq, 0.2 mM PIC-1, blood sample 1, sera 1:4 | Table 13: 20 mM Cys 1eq, 0.2 mM PIC-1, blood sample 1, sera 1:100 | Table 13: 20 mM Cys 1eq, 0.2 mM PIC-1, blood sample 2, sera 1:100 | Table 13: 20 mM Cys 2eq, 0.2 mM PIC-1, blood sample 1, sera 1:4 | Table 13: 20 mM Cys 2eq, 0.2 mM PIC-1, blood sample 1, sera 1:100 | Table 13: 20 mM Cys 2eq, 0.2 mM PIC-1, blood sample 2, sera 1:100 | Table 13: 20 mM GSH 2eq, 0.2 mM PIC-1, blood sample 1, sera 1:100 | Table 13: 20 mM GSH 2eq, 0.2 mM PIC-1, blood sample 2, sera 1:100 | Table 14: 5 mM CysGly, 0.2 mM PIC-1, 1:100 dilution of serum | Table 14: 10 mM CysGly, 0.2 mM PIC-1, 1:100 dilution of serum | another study, rabbit sera 1:100: 10, 15, 20 mM neutralized glutathione, all samples
1: Table 13: 5 mM GSH 2eq/15 mM Cys 2eq, 0.2 mM PIC-1, blood sample 1, sera 1:4 | Table 13: 5 mM GSH 2eq/15 mM Cys 2eq, 0.2 mM PIC-1, blood sample 2, sera 1:4 | Table 13: 20 mM Cys 2eq, 0.2 mM PIC-1, blood sample 2, sera 1:4
1+: another study, rabbit sera 1:4: 20 mM neutralized (2 eq.) glutathione, 0.2 mM PIC-1
2: Table 13: 10 mM GSH 2eq/10 mM Cys 2eq, 0.2 mM PIC-1, blood sample 1, sera 1:4 | Table 13: 10 mM GSH 2eq/10 mM Cys 2eq, 0.2 mM PIC-1, blood sample 2, sera 1:4 | Table 14: 5 mM CysGly 1 eq. base, 0.2 mM PIC-1, 1:100 dilution of serum
4: Table 13: 15 mM GSH 2eq/5 mM Cys 1eq, 0.2 mM PIC-1, blood sample 1, sera 1:4 | Table 13: 15 mM GSH 2eq/5 mM Cys 2eq, 0.2 mM PIC-1, blood sample 1, sera 1:4 | Table 13: 20 mM GSH 2eq, 0.2 mM PIC-1, blood sample 1, sera 1:4 | Table 13: 20 mM GSH 2eq, 0.2 mM PIC-1, blood sample 2, sera 1:4 | Table 14: 5 mM CysGly 1 eq. base, 0.2 mM PIC-1, 1:4 dilution of serum | Table 14: 5 mM CysGly, 0.2 mM PIC-1, 1:4 dilution of serum | Table 14: 10 mM CysGly, 0.2 mM PIC-1, 1:4 dilution of serum | Table 14: […] CysGly 1 eq. base, 0.2 mM PIC-1, 1:4 dilution of serum | Table 14: […] CysGly 1 eq. base, 0.2 mM PIC-1, 1:100 dilution of serum | Table 14: […] CysGly, 0.2 mM PIC-1, 1:4 dilution of serum
3+: another study, rabbit sera 1:4: 15 mM neutralized (2 eq.) glutathione, 0.2 mM PIC-1
3: Table 13: 5 mM GSH 2eq/15 mM Cys 1eq, 0.2 mM PIC-1, blood sample 2, sera 1:4 | Table 13: 10 mM GSH 2eq/10 mM Cys 1eq, 0.2 mM PIC-1, blood sample 1, sera 1:4 | Table 13: 10 mM GSH 2eq/10 mM Cys 1eq, 0.2 mM PIC-1, blood sample 2, sera 1:4 | Table 13: 15 mM GSH 2eq/5 mM Cys 1eq, 0.2 mM PIC-1, blood sample 2, sera 1:4 | Table 13: 15 mM GSH 2eq/5 mM Cys 2eq, 0.2 mM PIC-1, blood sample 2, sera 1:4 | Table 13: 20 mM Cys 1eq, 0.2 mM PIC-1, blood sample 2, sera 1:4 | Table 14: […] CysGly, 0.2 mM PIC-1, 1:100 dilution of serum
